# Values quoted from earlier work, collected in publication PMC10215804, “Exploring Alternative Pathways to Target Bacterial Type II Topoisomerases Using NBTI Antibacterials: Beyond Halogen-Bonding Interactions” (Antibiotics, 2023).
# Key:
# S. aureus topoIV = target: T1, S. aureus topoIV (Staphylococcus aureus, UniProt P0C1U9); conditions: relaxation inhibition; cited from earlier work
# T1 construct: purchased Inspiralis (Norwich, UK)
# E. coli (ATCC 25922) = conditions: cited from earlier work
# E. coli D22 = conditions: lpxC mutation; cited from earlier work
# VRE = conditions: cited from earlier work
# E. coli topoIV = target: T2, E. coli topoIV (Escherichia coli, UniProt P0AFI2); conditions: relaxation inhibition; cited from earlier work
# T2 construct: purchased Inspiralis (Norwich, UK)
# E. faecalis RDK 057 = conditions: cited from earlier work
# S. aureus (ATCC 29213) = conditions: cited from earlier work
# E. coli ESBL QA-11.3 = tested on: E. coli ESBL QA-11.3; design: method as in PMID 35970069; conditions: cited from earlier work
# MRSA(QA-12.1) = tested on: MRSA(QA-12.1); design: method as in PMID 35970069; conditions: cited from earlier work
# E. coli DNA gyrase = target: T3, E. coli DNA gyrase (Escherichia coli, UniProt P0AES4); conditions: supercoiling inhibition; cited from earlier work
# T3 construct: purchased Inspiralis (Norwich, UK)
# P. aeruginosa RDK 184 = conditions: cited from earlier work
# K. pneumoniae = tested on: K. pneumoniae; design: method as in PMID 35970069; conditions: cited from earlier work
# E. coli N43 (CGSC# 5583) = conditions: AcrA knockout; cited from earlier work
# MRSA (QA-11.7) = conditions: cited from earlier work
# S. aureus DNA gyrase = target: T4, S. aureus DNA gyrase (Staphylococcus aureus, UniProt P20831); conditions: supercoiling inhibition; cited from earlier work
# T4 construct: purchased Inspiralis (Norwich, UK)
# human topoisomerase IIα = target: T5, human topoisomerase IIα (Homo sapiens, UniProt P11388); conditions: residual activity at 100 µM compound; cited from earlier work
# T5 construct: purchased Inspiralis (Norwich, UK)
# A. baumannii = tested on: A. baumannii; design: method as in PMID 35970069; conditions: cited from earlier work
# MRSA (QA-11.2) = tested on: MRSA (QA-11.2); design: method as in PMID 35970069; conditions: cited from earlier work
# T2 sequence (P20083 whole entry): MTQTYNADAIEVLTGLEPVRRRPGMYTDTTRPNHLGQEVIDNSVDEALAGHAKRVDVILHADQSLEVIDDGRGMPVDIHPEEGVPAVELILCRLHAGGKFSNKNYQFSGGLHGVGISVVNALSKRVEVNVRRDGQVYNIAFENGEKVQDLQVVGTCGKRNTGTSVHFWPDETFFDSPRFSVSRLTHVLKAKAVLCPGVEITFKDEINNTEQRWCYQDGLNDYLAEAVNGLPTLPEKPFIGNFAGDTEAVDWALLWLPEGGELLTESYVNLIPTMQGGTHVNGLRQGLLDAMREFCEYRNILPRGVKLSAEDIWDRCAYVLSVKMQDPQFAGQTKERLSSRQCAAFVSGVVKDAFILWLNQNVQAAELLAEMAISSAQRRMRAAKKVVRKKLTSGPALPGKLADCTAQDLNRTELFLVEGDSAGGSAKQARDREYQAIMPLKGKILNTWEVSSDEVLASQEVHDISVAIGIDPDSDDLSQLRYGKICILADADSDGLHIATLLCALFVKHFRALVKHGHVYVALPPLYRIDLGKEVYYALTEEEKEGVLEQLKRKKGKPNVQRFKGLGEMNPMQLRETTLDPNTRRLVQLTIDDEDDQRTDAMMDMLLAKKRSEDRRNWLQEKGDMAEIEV
# T2 sequence (P0AFI2 whole entry): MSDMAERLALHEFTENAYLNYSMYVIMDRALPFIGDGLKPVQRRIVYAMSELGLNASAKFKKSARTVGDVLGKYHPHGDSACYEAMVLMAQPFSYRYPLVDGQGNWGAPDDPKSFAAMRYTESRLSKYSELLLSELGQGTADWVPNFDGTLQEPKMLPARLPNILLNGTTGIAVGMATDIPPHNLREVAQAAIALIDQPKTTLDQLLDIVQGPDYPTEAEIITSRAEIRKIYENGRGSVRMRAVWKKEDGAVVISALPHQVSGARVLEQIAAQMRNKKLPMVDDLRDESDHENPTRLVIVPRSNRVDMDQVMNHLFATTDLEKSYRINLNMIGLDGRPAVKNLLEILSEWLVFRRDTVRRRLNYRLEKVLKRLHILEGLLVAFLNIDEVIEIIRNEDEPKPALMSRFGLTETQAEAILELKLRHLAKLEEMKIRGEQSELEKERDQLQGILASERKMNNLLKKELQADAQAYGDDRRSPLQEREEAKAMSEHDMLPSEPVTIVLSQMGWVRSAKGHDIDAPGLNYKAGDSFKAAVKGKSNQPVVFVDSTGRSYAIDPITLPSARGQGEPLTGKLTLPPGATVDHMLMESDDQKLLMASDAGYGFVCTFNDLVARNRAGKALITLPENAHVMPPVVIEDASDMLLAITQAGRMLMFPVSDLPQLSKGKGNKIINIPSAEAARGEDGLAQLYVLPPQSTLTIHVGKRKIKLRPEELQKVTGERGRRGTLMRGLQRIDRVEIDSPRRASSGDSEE
# T3 sequence (P0AES4 whole entry): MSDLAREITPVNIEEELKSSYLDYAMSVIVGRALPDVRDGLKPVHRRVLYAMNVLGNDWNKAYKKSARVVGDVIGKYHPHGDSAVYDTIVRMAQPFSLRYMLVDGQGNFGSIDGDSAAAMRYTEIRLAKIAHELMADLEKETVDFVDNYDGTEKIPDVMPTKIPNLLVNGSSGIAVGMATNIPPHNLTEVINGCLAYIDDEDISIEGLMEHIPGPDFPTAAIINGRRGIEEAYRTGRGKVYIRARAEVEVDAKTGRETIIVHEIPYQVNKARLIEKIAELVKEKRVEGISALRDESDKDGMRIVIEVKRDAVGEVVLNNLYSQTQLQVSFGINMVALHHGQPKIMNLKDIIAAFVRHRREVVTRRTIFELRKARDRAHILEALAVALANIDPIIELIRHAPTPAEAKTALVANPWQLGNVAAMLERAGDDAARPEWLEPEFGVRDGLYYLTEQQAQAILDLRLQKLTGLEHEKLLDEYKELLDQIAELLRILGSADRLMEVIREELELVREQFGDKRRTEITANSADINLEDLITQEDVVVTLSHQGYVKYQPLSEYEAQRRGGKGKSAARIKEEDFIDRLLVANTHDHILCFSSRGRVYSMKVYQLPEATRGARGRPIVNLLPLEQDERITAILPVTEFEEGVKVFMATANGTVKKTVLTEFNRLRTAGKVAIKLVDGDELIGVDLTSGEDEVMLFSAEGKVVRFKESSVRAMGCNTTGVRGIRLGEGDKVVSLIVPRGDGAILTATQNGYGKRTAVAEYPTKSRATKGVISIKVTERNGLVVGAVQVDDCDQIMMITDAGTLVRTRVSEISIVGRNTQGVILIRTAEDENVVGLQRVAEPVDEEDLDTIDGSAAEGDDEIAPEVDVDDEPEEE
# T4 sequence (P20831 whole entry): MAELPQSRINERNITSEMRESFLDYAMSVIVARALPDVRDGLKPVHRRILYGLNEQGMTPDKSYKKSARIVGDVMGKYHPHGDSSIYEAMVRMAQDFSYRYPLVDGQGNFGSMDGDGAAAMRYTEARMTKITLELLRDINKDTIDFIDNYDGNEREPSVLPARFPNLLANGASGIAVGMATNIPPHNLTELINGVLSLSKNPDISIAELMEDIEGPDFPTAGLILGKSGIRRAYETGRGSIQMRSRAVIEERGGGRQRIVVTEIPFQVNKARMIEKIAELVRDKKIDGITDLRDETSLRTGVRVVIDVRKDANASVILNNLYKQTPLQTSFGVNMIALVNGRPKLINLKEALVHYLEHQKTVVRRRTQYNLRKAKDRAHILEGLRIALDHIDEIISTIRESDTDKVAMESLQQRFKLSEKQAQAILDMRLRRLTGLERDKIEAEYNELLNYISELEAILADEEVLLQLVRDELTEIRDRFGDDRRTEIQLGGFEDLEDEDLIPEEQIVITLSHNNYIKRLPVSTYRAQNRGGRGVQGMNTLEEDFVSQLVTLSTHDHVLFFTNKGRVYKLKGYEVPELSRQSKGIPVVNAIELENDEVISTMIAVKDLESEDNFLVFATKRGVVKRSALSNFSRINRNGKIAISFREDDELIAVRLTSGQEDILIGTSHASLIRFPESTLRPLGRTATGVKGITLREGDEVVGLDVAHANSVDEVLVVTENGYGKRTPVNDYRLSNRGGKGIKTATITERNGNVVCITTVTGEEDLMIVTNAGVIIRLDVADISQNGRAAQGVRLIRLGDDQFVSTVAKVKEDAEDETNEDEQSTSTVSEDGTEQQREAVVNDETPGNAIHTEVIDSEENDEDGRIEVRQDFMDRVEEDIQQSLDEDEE
# T4 sequence (P0A0K8 whole entry partner): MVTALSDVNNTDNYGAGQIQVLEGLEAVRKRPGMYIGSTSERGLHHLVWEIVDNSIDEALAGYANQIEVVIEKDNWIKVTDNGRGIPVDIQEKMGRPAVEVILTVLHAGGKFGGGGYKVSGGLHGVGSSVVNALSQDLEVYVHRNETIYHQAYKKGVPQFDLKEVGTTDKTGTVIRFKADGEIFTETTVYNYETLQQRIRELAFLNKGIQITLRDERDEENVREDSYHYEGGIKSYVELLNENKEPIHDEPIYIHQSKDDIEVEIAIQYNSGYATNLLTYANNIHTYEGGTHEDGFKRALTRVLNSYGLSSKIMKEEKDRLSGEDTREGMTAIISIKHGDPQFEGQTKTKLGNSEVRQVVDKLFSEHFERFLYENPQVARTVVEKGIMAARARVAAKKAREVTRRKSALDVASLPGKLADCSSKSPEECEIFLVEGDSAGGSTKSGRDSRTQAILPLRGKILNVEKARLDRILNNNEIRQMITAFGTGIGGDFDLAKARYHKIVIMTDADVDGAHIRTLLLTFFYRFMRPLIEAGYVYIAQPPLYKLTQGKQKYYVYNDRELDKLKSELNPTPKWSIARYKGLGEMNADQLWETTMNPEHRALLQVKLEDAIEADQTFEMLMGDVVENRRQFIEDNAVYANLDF
smiles,measurement,setting,value
COc1ccc2nccc(C(O)CC3CC[C@H](NCc4ccc(Br)cc4)CO3)c2n1 (stereo partly drawn) [Compound 4],IC50,S. aureus topoIV,> 100000 nM
same,MIC E. coli (ATCC 25922),E. coli (ATCC 25922),16 µg/mL
same,MIC E. coli D22,E. coli D22,1 µg/mL
same,MIC VRE,VRE,0.032 µg/mL
same,IC50,E. coli topoIV,52 ± 3 nM
same,MIC E. faecalis RDK 057,E. faecalis RDK 057,0.5 µg/mL
same,MIC S. aureus (ATCC 29213),S. aureus (ATCC 29213),0.016 µg/mL
same,MIC E. coli ESBL QA-11.3,E. coli ESBL QA-11.3,>128 µg/mL
same,MIC MRSA(QA-12.1),MRSA(QA-12.1),0.016 µg/mL
same,IC50,E. coli DNA gyrase,1570 ± 404 nM
same,MIC P. aeruginosa RDK 184,P. aeruginosa RDK 184,128 µg/mL
same,MIC K. pneumoniae,K. pneumoniae,128 µg/mL
same,MIC E. coli N43 (CGSC# 5583),E. coli N43 (CGSC# 5583),0.25 µg/mL
same,MIC MRSA (QA-11.7),MRSA (QA-11.7),0.016 µg/mL
same,IC50,S. aureus DNA gyrase,65 ± 2 nM
same,Human TopoIIα (% RA at 100 µM),human topoisomerase IIα,106 ± 0%
same,MIC A. baumannii,A. baumannii,>128 µg/mL
same,MIC MRSA (QA-11.2),MRSA (QA-11.2),0.031 µg/mL
